Measured values as given in patent US20140148498A1, “METHODS AND COMPOSITIONS FOR THE TREATMENT OF MARFAN SYNDROME AND ASSOCIATED DISORDERS” (THE JOHNS HOPKINS UNIVERSITY, priority 2011, published 2014).
“Also recorded” adds a separate entry of the source.

Test system: Fbn1^C1039G/+ mice
Assay: Aortic wall architecture score (VVG staining)
Format: in vivo
Conditions: FIG. 9
Procedure: Latex-infused ascending aortas were transected just above the level of the aortic valve, and 2-3 mm transverse sections were mounted in 4% agar prior to paraffin fixation. Five micrometer aortic sections underwent Verhoeff-van Giesen (VVG) staining and were imaged at 40× magnification, using a Nikon Eclipse E400 microscope. Wall thickness of the aortic media was measured by a single blinded observer at 16 different locations around the most proximal ascending aortic ring and averaged. Wall architecture of 4 representative sections for each mouse was assessed by the same 3 blinded observers and graded on an arbitrary scale of 1 (indicating no breaks in the elastic fiber) to 5 (indicating diffuse fragmentation), and the results were averaged. Elastic fiber content was quantified in four separate representative images of each section of the most proximal ascending aorta by a single blinded observer, using NIS Elements Advanced Research (Nikon, Japan). The aortic media and the elastic fibers were individually outlined and their areas calculated. The respective areas were averaged from all the images of a given aortic section and the ratio of elastic fiber content to total aortic media was determined. Individual lobes of the lungs were mounted in 4% agar and fixed in paraffin. Five micrometer lung sections underwent hematoxylin and eosin staining and were imaged at 10× magnification, using a Nikon Eclipse E400 microscope. Five fields were analyzed for each lobe of each lung by a single blinded observer, and a mean linear intercept was calculated using a previously described method (J. P. Habashi et al., Science 312, 117 (2006); and E. R. Neptune et al., Nat. Genet. 33, 407 (2003)).

Compound: CCCCc1nc(Cl)c(CO)n1Cc1ccc(-c2ccccc2-c2nn[nH]n2)cc1 [losartan]
- Aortic wall architecture score: significantly more beneficial than both placebo and enalapril treatment; also recorded: significant improvement
